Data from patent publication US6686343B1, “Triazolopurine derivatives, pharmaceutical compositions containing the derivatives, and adenosine A3 receptor affinitive agents” (Otsuka Pharmaceutical Factory, Inc., priority 1999, dated 2004).

| SMILES | melting point |
| --- | --- |
| COCCc1nc2nc[nH]c2c2nc(-c3ccc(Cl)cc3)nn12 [Example 28, 8-(4-chlorophenyl)-5-(2-methoxyethyl)-1H-1,2,4-triazolo[5,1-i]purine] | ≥ 278 °C (dec.) |
| c1ccc(-c2ccc(-c3nc4c5[nH]cnc5nc(C5CCCC5)n4n3)cc2)cc1 [Example 46, 8-(4-biphenylyl)-5-cyclopentyl-1H-1,2,4-triazolo[5,1-i]purine] | ≥ 280 °C |
| CC(=O)OCc1nc2nc[nH]c2c2nc(-c3ccc(-c4ccccc4)cc3)nn12 [Example 52, 8-(4-biphenylyl)-5-acetoxymethyl-1H-1,2,4-triazolo[5,1-i]purine] | 233 to 235 °C |
| COCc1nc2nc[nH]c2c2nc(-c3ccc(-c4ccccc4)cc3)nn12 [Example 2, 8-(4-biphenylyl)-5-methoxymethyl-1H-1,2,4-triazolo[5,1-i]purine] | ≥ 280 °C |
| COCCc1nc2nc[nH]c2c2nc(-c3ccc(C(F)(F)F)cc3)nn12 [Example 26, 5-(2-methoxyethyl)-8-(4-trifluoromethylphenyl)-1H-1,2,4-triazolo[5,1-i]purine] | ≥ 256 °C (dec.) |
| COC(=O)CCCc1nc2nc[nH]c2c2nc(-c3ccc(C(C)(C)C)cc3)nn12 [Example 23, 8-(4-t-butylphenyl)-5-(3-methoxycarbonylpropyl)-1H-1,2,4-triazolo[5,1-i]purine] | 169 to 172.5 °C |
| CCOC(=O)CCc1nc2nc[nH]c2c2nc(-c3ccc(-c4ccccc4)cc3)nn12 [Example 20, 8-(4-biphenylyl)-5-(2-ethoxycarbonylethyl)-1H-1,2,4-triazolo[5,1-i]purine] | 241.5 to 244 °C |
| C[S+]([O-])CCc1nc2nc[nH]c2c2nc(-c3ccc(Cl)cc3)nn12 (stereo not shown) [Example 38, 8-(4-chlorophenyl)-5-(2-methylsulfinylethyl)-1H-1,2,4-triazolo[5,1-i]purine] | ≥ 218 °C (dec.) |
| CC(C)(C)c1ccc(-c2nc3c4[nH]cnc4nc(CCS(C)(=O)=O)n3n2)cc1 [Example 43, 8-(4-t-butylphenyl)-5-(2-methylsulfonylethyl)-1H-1,2,4-triazolo[5,1-i]purine] | ≥ 201 °C (dec.) |
| COCCc1nc2nc[nH]c2c2nc(-c3ccc(C(C)(C)C)cc3)nn12 [Example 16, 8-(4-t-butylphenyl)-5-(2-methoxyethyl)-1H-1,2,4-triazolo[5,1-i]purine] | 237 to 239 °C |
| COCCc1nc2nc[nH]c2c2nc(-c3ccccc3)nn12 (hydrate or solvate) [Example 13, 5-(2-methoxyethyl)-8-phenyl-1H-1,2,4-triazolo[5,1-i]purine] | 217.5 to 218.5 °C |
| COCc1nc2nc[nH]c2c2nc(-c3cc(OC)c(OC)c(OC)c3)nn12 [Example 6, 5-methoxymethyl-8-(3,4,5-trimethoxyphenyl)-1H-1,2,4-triazolo[5,1-i]purine] | ≥ 280 °C |
| C[S+]([O-])Cc1nc2nc[nH]c2c2nc(-c3ccc(-c4ccccc4)cc3)nn12 (stereo not shown) [Example 60, 8-(4-biphenylyl)-5-methylsulfinylmethyl-1H-1,2,4-triazolo[5,1-i]purine] | ≥ 246 °C (dec.) |
| CN(C)CCCc1nc2nc[nH]c2c2nc(-c3ccc(-c4ccccc4)cc3)nn12 [Example 55, 8-(4-biphenylyl)-5-(3-dimethylaminopropyl)-1H-1,2,4-triazolo[5,1-i]purine] | 227 to 230 °C (dec.) |
| CCOP(=O)(Cc1nc2nc[nH]c2c2nc(-c3ccc(-c4ccccc4)cc3)nn12)OCC | 188 to 192 °C |
| CN(C)Cc1nc2nc[nH]c2c2nc(-c3ccc(-c4ccccc4)cc3)nn12 [Example 54, 8-(4-biphenylyl)-5-dimethylaminomethyl-1H-1,2,4-triazolo[5,1-i]purine] | 284 to 286 °C (dec.) |
| CSCCc1nc2nc[nH]c2c2nc(-c3ccc(C(F)(F)F)cc3)nn12 [Example 27, 5-(2-methylthioethyl)-8-(4-trifluoromethylphenyl)-1H-1,2,4-triazolo[5,1-i]purine] | ≥ 255 °C (dec.) |

| SMILES | melting point |
| --- | --- |
| c1ccc(COCCCc2nc3nc[nH]c3c3nc(-c4ccc(-c5ccccc5)cc4)nn23)cc1 [Example 56, 5-(3-benzyloxypropyl)-8-(4-biphenylyl)-1H-1,2,4-triazolo[5,1-i]purine] | 237 to 238 °C |
| C[S+]([O-])CCc1nc2nc[nH]c2c2nc(-c3ccc(C(F)(F)F)cc3)nn12 (stereo not shown) [Example 40, 5-(2-methylsulfinylethyl)-8-(4-trifluoromethylphenyl)-1H-1,2,4-triazolo[5,1-i]purine] | ≥ 203 °C (dec.) |
| COc1cc(-c2nc3c4[nH]cnc4nc(CCSC)n3n2)cc(OC)c1OC [Example 19, 5-(2-methylthioethyl)-8-(3,4,5-trimethoxyphenyl)-1H-1,2,4-triazolo[5,1-i]purine] | 233 to 234 °C |
| CC(C)(C)c1ccc(-c2nc3c4[nH]cnc4nc(CCCC(=O)O)n3n2)cc1 [Example 35, 8-(4-t-butylphenyl)-5-(3-carboxypropyl)-1H-1,2,4-triazolo[5,1-i]purine] | ≥ 280 °C |
| CCCOc1ccc(-c2nc3c4[nH]cnc4nc(COCC)n3n2)cc1 [Example 8, 5-ethoxymethyl-8-(4-n-propoxyphenyl)-1H-1,2,4-triazolo[5,1-i]purine] | 262 to 263 °C |
| CCOCc1nc2nc[nH]c2c2nc(-c3ccc(C(F)(F)F)cc3)nn12 [Example 25, 5-ethoxymethyl-8-(4-trifluoromethylphenyl)-1H-1,2,4-triazolo[5,1-i]purine] | ≥ 280 °C |
| CCOP(=O)(O)Cc1nc2nc[nH]c2c2nc(-c3ccc(-c4ccccc4)cc3)nn12 | 274 to 277 °C |
| CCOP(=O)(CCc1nc2nc[nH]c2c2nc(-c3ccc(-c4ccccc4)cc3)nn12)OCC | ≥ 110 °C |
| FC(F)(F)c1nc2nc[nH]c2c2nc(-c3ccc(-c4ccccc4)cc3)nn12 [Example 47, 8-(4-biphenylyl)-5-trifluoromethyl-1H-1,2,4-triazolo[5,1-i]purine] | ≥ 280 °C |
| COC(=O)CCCc1nc2nc[nH]c2c2nc(-c3ccc(-c4ccccc4)cc3)nn12 [Example 21, 8-(4-biphenylyl)-5-(3-methoxycarbonylpropyl)-1H-1,2,4-triazolo[5,1-i]purine] | 243 to 245.5 °C |
| CCOP(=O)(CCCc1nc2nc[nH]c2c2nc(-c3ccc(-c4ccccc4)cc3)nn12)OCC | 175 to 178 °C |
| C[S+]([O-])CCc1nc2nc[nH]c2c2nc(-c3ccc(C(C)(C)C)cc3)nn12 (stereo not shown) [Example 39, 8-(4-t-butylphenyl)-5-(2-methylsulfinylethyl)-1H-1,2,4-triazolo[5,1-i]purine] | ≥ 162 °C (dec.) |
| CSCCc1nc2nc[nH]c2c2nc(-c3ccc(C(C)(C)C)cc3)nn12 [Example 17, 8-(4-t-butylphenyl)-5-(2-methylthioethyl)-1H-1,2,4-triazolo[5,1-i]purine] | 229 to 231 °C |
| CCOCc1nc2nc[nH]c2c2nc(-c3ccc(C(C)(C)C)cc3)nn12 [Example 14, 8-(4-t-butylphenyl)-5-ethoxymethyl-1H-1,2,4-triazolo[5,1-i]purine] | 243 to 244 °C |
| C[S+]([O-])CCc1nc2nc[nH]c2c2nc(-c3ccc(-c4ccccc4)cc3)nn12 (stereo not shown) [Example 61, 8-(4-biphenylyl)-5-(2-methylsulfinylethyl)-1H-1,2,4-triazolo[5,1-i]purine] | ≥ 234 °C (dec.) |
| c1ccc(COCCCCc2nc3nc[nH]c3c3nc(-c4ccc(-c5ccccc5)cc4)nn23)cc1 [Example 57, 5-(4-benzyloxybutyl)-8-(4-biphenylyl)-1H-1,2,4-triazolo[5,1-i]purine] | 205 to 207 °C |
| COC(=O)CCCc1nc2nc[nH]c2c2nc(-c3ccccc3)nn12 [Example 18, 5-(3-methoxycarbonylpropyl)-8-phenyl-1H-1,2,4-triazolo[5,1-i]purine] | 228 to 230 °C |
